According to PubChem BioAssay (NCI):
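Tested at 5 concentrations; 48 h exposure; 96-well plates; endpoints linearly interpolated, else capped at highest concentration. GI50: concentration for 50% inhibition of growth. TGI: total growth inhibition.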

Legend:
Assay in all cases: growth of human tumour cells (NCI), 48 h
HL-60(TB) leukemia = system: HL-60(TB) leukemia
IGROV1 ovarian = system: IGROV1 ovarian
A498 renal = system: A498 renal
ACHN renal = system: ACHN renal
SF-268 CNS = system: SF-268 CNS
SN12C renal = system: SN12C renal
SNB-75 CNS = system: SNB-75 CNS
SR leukemia = system: SR leukemia
MDA-MB-231 breast = system: MDA-MB-231 breast
MCF7 breast = system: MCF7 breast

## Nc1n[n+](-c2ccccc2)no1
HL-60(TB) leukemia
  TGI: > 100 µM
IGROV1 ovarian
  TGI: > 100 µM
A498 renal
  TGI: > 100 µM
ACHN renal
  TGI: > 100 µM
SF-268 CNS
  TGI: > 100 µM
SN12C renal
  TGI: > 100 µM

## CC1=C(O)/C(=C/C(C)CCC/C(C)=C/C=C/C(C)CCCc2ccoc2)OC1=O (stereo unspecified)
HL-60(TB) leukemia
  TGI: 63.8 µM
SNB-75 CNS
  TGI: > 100 µM
ACHN renal
  TGI: 50.9 µM
SF-268 CNS
  TGI: 97.9 µM
SN12C renal
  TGI: > 100 µM

## CC(=O)[CH-]C(=O)c1ccccc1.CC(=O)[CH-]C(=O)c1ccccc1.Cc1cc([O-])ccc1Cl.Cc1cc([O-])ccc1Cl.[Ti+4]
HL-60(TB) leukemia
  GI50: 13.7 µM
  TGI: 44.2 µM
IGROV1 ovarian
  GI50: 26.9 µM
  TGI: > 100 µM
SNB-75 CNS
  GI50: 20.7 µM
  TGI: 69.1 µM
A498 renal
  GI50: 17.2 µM
  TGI: 42.8 µM
ACHN renal
  GI50: 30.1 µM
  TGI: > 100 µM
SF-268 CNS
  GI50: 19.5 µM
  TGI: 74.8 µM
SN12C renal
  GI50: 32.3 µM
  TGI: > 100 µM

## O=C(N/N=C1\C(=O)N(c2nccs2)C(=O)C(=O)C1c1nc2ccccc2s1)c1ccccc1O (stereo unspecified)
HL-60(TB) leukemia
  TGI: > 100 µM
IGROV1 ovarian
  TGI: > 100 µM
SNB-75 CNS
  TGI: > 100 µM
A498 renal
  TGI: > 100 µM
ACHN renal
  TGI: > 100 µM
SF-268 CNS
  TGI: > 100 µM
SN12C renal
  TGI: > 100 µM

## CCc1cc(CCC(=O)Nc2ccccc2[N+](=O)[O-])[nH]c(=S)n1
HL-60(TB) leukemia
  TGI: > 100 µM
IGROV1 ovarian
  TGI: > 100 µM
ACHN renal
  TGI: > 100 µM
SF-268 CNS
  TGI: > 100 µM
SR leukemia
  TGI: > 100 µM

## C=C1CC2CC(O)CC(C1)C2 (stereo unspecified)
IGROV1 ovarian
  TGI: > 100 µM
SNB-75 CNS
  TGI: > 100 µM
A498 renal
  TGI: > 100 µM
ACHN renal
  TGI: > 100 µM
SF-268 CNS
  TGI: > 100 µM
SR leukemia
  TGI: > 100 µM
SN12C renal
  TGI: > 100 µM

## CCOC(=O)c1cc(-c2ccccc2)[nH]c1N/N=C/c1ccc(Cl)cc1
HL-60(TB) leukemia
  GI50: 29.5 µM
  TGI: 63.8 µM
IGROV1 ovarian
  GI50: 95.2 µM
  TGI: > 100 µM
SNB-75 CNS
  GI50: > 100 µM
  TGI: > 100 µM
ACHN renal
  GI50: > 100 µM
  TGI: > 100 µM
SF-268 CNS
  GI50: > 100 µM
  TGI: > 100 µM
SN12C renal
  GI50: > 100 µM
  TGI: > 100 µM
MDA-MB-231 breast
  GI50: > 100 µM
  TGI: > 100 µM
MCF7 breast
  GI50: 19.5 µM
  TGI: > 100 µM

## CCOC(=O)C(CC/C=C\c1ccccc1)N1CCC[C@H]1C(=O)OC (stereo partly specified)
HL-60(TB) leukemia
  TGI: > 100 µM
IGROV1 ovarian
  TGI: > 100 µM
SNB-75 CNS
  TGI: > 100 µM
A498 renal
  TGI: > 100 µM
ACHN renal
  TGI: > 100 µM
SF-268 CNS
  TGI: > 100 µM
SR leukemia
  TGI: > 100 µM
SN12C renal
  TGI: > 100 µM

## N#Cc1c(N)nc(N2CCOCC2)c(C#N)c1-c1ccccn1
HL-60(TB) leukemia
  GI50: > 100 µM
  TGI: > 100 µM
IGROV1 ovarian
  GI50: > 52.3 µM
  TGI: > 100 µM
SNB-75 CNS
  GI50: > 88.5 µM
  TGI: > 100 µM
A498 renal
  GI50: > 100 µM
  TGI: > 100 µM
ACHN renal
  GI50: > 100 µM
  TGI: > 100 µM
SF-268 CNS
  GI50: > 100 µM
  TGI: > 100 µM
SN12C renal
  GI50: > 100 µM
  TGI: > 100 µM
MCF7 breast
  GI50: > 100 µM
  TGI: > 100 µM

## CC(=O)c1c(CO[N+](=O)[O-])n([O-])c2ccccc2[n+]1=O
IGROV1 ovarian
  TGI: > 100 µM
SNB-75 CNS
  TGI: > 100 µM
ACHN renal
  TGI: > 100 µM
SF-268 CNS
  TGI: > 100 µM
SR leukemia
  TGI: > 100 µM
SN12C renal
  TGI: > 100 µM
MDA-MB-231 breast
  TGI: > 100 µM
MCF7 breast
  TGI: > 100 µM

## COc1ccc2oc(C(=O)O)c3c2c1CCC3CCC(=O)O (stereo unspecified)
HL-60(TB) leukemia
  TGI: > 100 µM
IGROV1 ovarian
  TGI: > 100 µM
SNB-75 CNS
  TGI: > 100 µM
A498 renal
  TGI: > 100 µM
ACHN renal
  TGI: > 100 µM
SF-268 CNS
  TGI: > 100 µM
SR leukemia
  TGI: > 100 µM
SN12C renal
  TGI: > 100 µM

## CCCN(CCC)c1ccc(/C=N/NC(=O)c2cccnc2)c(OC)c1
HL-60(TB) leukemia
  GI50: 22.7 µM
  TGI: 59.2 µM
IGROV1 ovarian
  GI50: 29.3 µM
  TGI: > 100 µM
SNB-75 CNS
  GI50: 23.7 µM
  TGI: 80.4 µM
A498 renal
  GI50: 2.27 µM
  TGI: 17.9 µM
ACHN renal
  GI50: 28.8 µM
  TGI: > 100 µM
SF-268 CNS
  GI50: 26 µM
  TGI: 88.7 µM
SR leukemia
  GI50: 17.1 µM
  TGI: 59.6 µM
SN12C renal
  GI50: 36.1 µM
  TGI: > 100 µM
MCF7 breast
  GI50: 19.1 µM
  TGI: 89.1 µM

## O=C(CCn1[nH]c(=O)c(Cl)c(Cl)c1=O)NNC(=O)C[n+]1ccccc1
HL-60(TB) leukemia
  TGI: > 100 µM
IGROV1 ovarian
  TGI: > 100 µM
SNB-75 CNS
  TGI: > 100 µM
A498 renal
  TGI: > 100 µM
ACHN renal
  TGI: > 100 µM
SF-268 CNS
  TGI: > 100 µM
SN12C renal
  TGI: > 100 µM

## O=C(NO)[C@@H](Cc1ccccc1)NS(=O)(=O)c1ccc(-c2ccccc2)cc1
IGROV1 ovarian
  GI50: 8.52 µM
  TGI: > 25 µM
SNB-75 CNS
  GI50: > 25 µM
  TGI: > 25 µM
A498 renal
  GI50: > 25 µM
  TGI: > 25 µM
ACHN renal
  GI50: 12.2 µM
  TGI: > 25 µM
SF-268 CNS
  GI50: 11.6 µM
  TGI: > 25 µM
SN12C renal
  GI50: > 25 µM
  TGI: > 25 µM
MDA-MB-231 breast
  GI50: > 25 µM
  TGI: > 25 µM
MCF7 breast
  GI50: > 25 µM
  TGI: > 25 µM

## O=C(CC(=O)c1cccc2ccccc12)C(=O)NC1C2CC3CC(C2)CC1C3 (stereo unspecified)
HL-60(TB) leukemia
  TGI: > 100 µM
IGROV1 ovarian
  TGI: > 100 µM
A498 renal
  TGI: > 100 µM
ACHN renal
  TGI: > 100 µM
SF-268 CNS
  TGI: > 100 µM
SN12C renal
  TGI: > 100 µM

## C/C=C(\CCOS(=O)(=O)c1ccc(C)cc1)[Si](C)(C)C
HL-60(TB) leukemia
  TGI: > 100 µM
IGROV1 ovarian
  TGI: > 100 µM
SNB-75 CNS
  TGI: > 100 µM
A498 renal
  TGI: > 100 µM
ACHN renal
  TGI: > 100 µM
SF-268 CNS
  TGI: > 100 µM
SR leukemia
  TGI: > 100 µM
SN12C renal
  TGI: > 100 µM

## CO/N=C(\COc1ccc2oc(-c3ccccc3)cc(=O)c2c1)c1ccc(OC)cc1
HL-60(TB) leukemia
  GI50: 6.16 µM
  TGI: > 100 µM
IGROV1 ovarian
  GI50: 17.9 µM
  TGI: 42.8 µM
SNB-75 CNS
  GI50: 25.4 µM
  TGI: 54.5 µM
A498 renal
  GI50: 23.7 µM
  TGI: 66.3 µM
ACHN renal
  GI50: 23.4 µM
  TGI: 51.9 µM
SR leukemia
  GI50: 11.3 µM
  TGI: 36.9 µM
SN12C renal
  GI50: 19.3 µM
  TGI: 44.7 µM
MDA-MB-231 breast
  GI50: 22 µM
  TGI: 45.2 µM

## N#CC1(C#N)C2C=CC(c3coc4cccc2c34)C1(C#N)C#N (stereo unspecified)
HL-60(TB) leukemia
  TGI: 3.44 µM
IGROV1 ovarian
  TGI: 35.9 µM
SNB-75 CNS
  TGI: 35.3 µM
A498 renal
  TGI: 34.6 µM
ACHN renal
  TGI: 17 µM
SF-268 CNS
  TGI: 20.3 µM
SR leukemia
  TGI: 7.83 µM
SN12C renal
  TGI: 23.2 µM

## Cc1cccc2c1CCC21OC(=O)c2c1ccc1ccccc21 (stereo unspecified)
HL-60(TB) leukemia
  TGI: 66 µM
IGROV1 ovarian
  TGI: > 100 µM
SNB-75 CNS
  TGI: > 100 µM
A498 renal
  TGI: 53.4 µM
ACHN renal
  TGI: > 100 µM
SF-268 CNS
  TGI: > 100 µM
SR leukemia
  TGI: 85.3 µM
SN12C renal
  TGI: > 100 µM

## O=C1c2ccccc2-c2c1c1c(O)cccc1n2Cc1ccccn1
IGROV1 ovarian
  GI50: 88.6 µM
  TGI: > 100 µM
SNB-75 CNS
  GI50: > 100 µM
  TGI: > 100 µM
ACHN renal
  GI50: 25.8 µM
  TGI: > 100 µM
SF-268 CNS
  GI50: 83.5 µM
  TGI: > 100 µM
SN12C renal
  GI50: 63.3 µM
  TGI: > 100 µM
MDA-MB-231 breast
  GI50: 28.5 µM
  TGI: > 100 µM
MCF7 breast
  GI50: 62.4 µM
  TGI: > 100 µM
